Measurements from patent publication US20240158446A1, “CYCLIC COMPOUND HAVING SELECTIVE INHIBITORY ACTION ON KRAS OVER HRAS AND NRAS” (CHUGAI SEIYAKU KABUSHIKI KAISHA, priority 2021, published 2024).

Key:
[1] = target: GDP-bound NRAS wild-type protein (Homo sapiens, UniProt P01111); assay: Binding to NRAS by surface plasmon resonance (SPR), Single Cycle Kinetics; settings: for NRAS/KRAS (ratio of KD value with respect to GDP-bound NRAS wild-type protein to KD value with respect to KRAS): SPR KD ratio NRAS/KRAS, class symbols
[2] = target: GDP-bound HRAS wild-type protein (Homo sapiens, UniProt P01112); assay: Binding to HRAS by surface plasmon resonance (SPR), Single Cycle Kinetics; settings: for HRAS/KRAS (ratio of KD value with respect to GDP-bound HRAS wild-type protein to KD value with respect to KRAS): SPR KD ratio HRAS/KRAS, class symbols
[3] = SPR, GDP-bound NRAS wild-type protein vs GDP-bound KRAS wild-type protein
[4] = SPR, GDP-bound HRAS wild-type protein vs GDP-bound KRAS wild-type protein

Chain of GDP-bound NRAS wild-type protein (P01111 whole entry): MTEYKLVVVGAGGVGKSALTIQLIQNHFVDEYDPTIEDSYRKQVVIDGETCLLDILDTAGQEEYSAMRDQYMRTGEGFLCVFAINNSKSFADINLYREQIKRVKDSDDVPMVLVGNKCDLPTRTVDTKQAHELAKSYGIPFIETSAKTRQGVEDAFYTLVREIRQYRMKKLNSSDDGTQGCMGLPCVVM
Chain of GDP-bound HRAS wild-type protein (P01112 whole entry): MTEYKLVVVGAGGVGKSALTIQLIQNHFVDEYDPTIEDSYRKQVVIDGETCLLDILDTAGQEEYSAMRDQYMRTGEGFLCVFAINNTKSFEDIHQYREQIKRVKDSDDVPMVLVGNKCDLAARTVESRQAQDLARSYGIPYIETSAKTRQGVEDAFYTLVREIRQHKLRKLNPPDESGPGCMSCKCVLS

CC[C@H](C)[C@@H]1NC(=O)[C@H](CC(C)C)N(C)C(=O)C[C@@H](C(=O)N(C)C)N(C)C(=O)[C@H](C2CCCC2)N(C)C(=O)C2(CC(C)(C)C2)NC(=O)[C@@H]2C[C@H](C)CN2C(=O)[C@H](CCc2ccc(C(F)(F)F)c(OC)c2)NC(=O)CN(C)C(=O)[C@H](Cc2ccc(C)cc2)N2CC/C=C\C[C@@H](C2=O)N(C)C(=O)CN(C)C1=O [PP1905]
NRAS/KRAS (KD ratio) ([1]; ratio of KD for GDP-bound NRAS wild-type protein to KD for KRAS, SPR): A (a compound having 10 or more and less than 20 is denoted as A)
HRAS/KRAS (KD ratio) ([2]; ratio of KD for GDP-bound HRAS wild-type protein to KD for KRAS, SPR): A (a compound having 10 or more and less than 20 is denoted as A)

CC[C@H](C)[C@@H]1NC(=O)[C@H](CC(C)C)N(C)C(=O)C[C@@H](C(=O)N2CCOCC2)N(C)C(=O)[C@H](C2CCCC2)N(C)C(=O)C2(CCC2)NC(=O)[C@]2(C)CCCN2C(=O)[C@H](CCc2cc(F)c(C(F)(F)F)c(F)c2)NC(=O)CN(C)C(=O)[C@H](Cc2ccc(C(F)(F)F)cc2)N2CCCCC[C@@H](C2=O)N(C)C(=O)CN(C)C1=O [PP0817]
NRAS/KRAS (ratio of KD value for NRAS to KD value for KRAS) [1, 3]: A (a compound having 10 or more and less than 20 is denoted as A)
HRAS/KRAS (ratio of KD value for HRAS to KD value for KRAS) [2, 4]: B (a compound having 3 or more and less than 10 is denoted as B)

CCO[C@@H]1C[C@H]2C(=O)NC3(CCC3)C(=O)N(C)[C@@H](C3CCCC3)C(=O)N(C)[C@H](C(=O)N(C)C)CC(=O)N(C)[C@@H](C)C(=O)N[C@@H]([C@H](C)CC)C(=O)N(C)CC(=O)N(C)[C@H]3CCCCCN(C3=O)[C@@H](Cc3ccc(C(F)(F)F)cc3)C(=O)N(C)CC(=O)N[C@@H](CCc3cc(F)c(C(F)(F)F)c(F)c3)C(=O)N2C1 [PP0729]
NRAS/KRAS (ratio of KD value with respect to NRAS to KD value with respect to KRAS) [1, 3]: B (a compound having 3 or more and less than 10 is denoted as B)
HRAS/KRAS (ratio of KD value with respect to HRAS to KD value with respect to KRAS) [2, 4]: B (a compound having 3 or more and less than 10 is denoted as B)

C#CC[C@H]1C(=O)N[C@@H]([C@@H](C)CC)C(=O)N(C)CC(=O)N(C)[C@H]2C/C=C\CCN(C2=O)[C@@H](Cc2ccc(C(F)(F)F)cc2)C(=O)N(C)CC(=O)N[C@@H](CCc2ccc(C(F)(F)F)c(OC)c2)C(=O)N2C[C@@H](C)C[C@H]2C(=O)NC2(CC(C)(C)C2)C(=O)N(C)[C@@H](C2CCCC2)C(=O)N(C)[C@H](C(=O)N(C)CCC)CC(=O)N1C [PP2057]
NRAS/KRAS (ratio of KD value for NRAS to KD value for KRAS) [1, 3]: A (a compound having 10 or more and less than 20 is denoted as A)
HRAS/KRAS (ratio of KD value for HRAS to KD value for KRAS) [2, 4]: A (a compound having 10 or more and less than 20 is denoted as A)

CCC[C@H]1C(=O)N[C@@H](C2CCCC2)C(=O)N(C)CC(=O)N(C)[C@H]2C/C=C\CCN(C2=O)[C@@H](Cc2ccc(C)cc2)C(=O)N(C)CC(=O)N[C@@H](CCc2ccc(C(F)(F)F)c(Cl)c2)C(=O)N2C[C@H](OCC)C[C@H]2C(=O)NC2(CC(C)(C)C2)C(=O)N(C)[C@@H](CC(C)C)C(=O)N(C)[C@H](C(=O)N(C)C)CC(=O)N1C [PP2190]
NRAS/KRAS (ratio of KD value for NRAS to KD value for KRAS) [1, 3]: A (a compound having 10 or more and less than 20 is denoted as A)
HRAS/KRAS (ratio of KD value for HRAS to KD value for KRAS) [2, 4]: A (a compound having 10 or more and less than 20 is denoted as A)

CCC[C@H]1C(=O)N[C@@H](C2CCOCC2)C(=O)N(C)CC(=O)N(C)[C@H]2C/C=C\CCN(C2=O)[C@@H](Cc2ccc(C)cc2)C(=O)N(C)CC(=O)N[C@@H](CCc2ccc(C(F)(F)F)c(Cl)c2)C(=O)N2C[C@H](OCC)C[C@H]2C(=O)NC2(CC(C)(C)C2)C(=O)N(C)[C@@H](C2CCCC2)C(=O)N(C)[C@H](C(=O)N(C)C)CC(=O)N1C [PP3002]
NRAS/KRAS (ratio of KD value for NRAS to KD value for KRAS) [1, 3]: A (a compound having 10 or more and less than 20 is denoted as A)
HRAS/KRAS (ratio of KD value for HRAS to KD value for KRAS) [2, 4]: A (a compound having 10 or more and less than 20 is denoted as A)

CCC[C@H]1C(=O)N[C@@H]([C@@H](C)CC)C(=O)N(C)CC(=O)N(C)[C@H]2C/C=C\CCN(C2=O)[C@@H](Cc2ccc(C(F)(F)F)cc2)C(=O)N(C)CC(=O)N[C@@H](CCc2cc(C)c(C(F)F)c(C)c2)C(=O)N2C[C@H](OCC)C[C@H]2C(=O)NC2(CC(C)(C)C2)C(=O)N(C)[C@@H](C2CCCC2)C(=O)N(C)[C@H](C(=O)N(C)C)CC(=O)N1C [PP2857]
NRAS/KRAS (ratio of KD value with respect to GDP-bound NRAS wild-type protein to KD value with respect to KRAS) [1]: A (a compound having 10 or more and less than 20 is denoted as A)
HRAS/KRAS (ratio of KD value with respect to GDP-bound HRAS wild-type protein to KD value with respect to KRAS) [2]: A (a compound having 10 or more and less than 20 is denoted as A)

CCO[C@@H]1C[C@H]2C(=O)NC3(CCC3)C(=O)N(C)[C@@H](C3CCCC3)C(=O)N(C)[C@H](C(=O)N3C4CCC3COC4)CC(=O)N(C)[C@@H](CC)C(=O)N[C@@H]([C@@H](C)CC)C(=O)N(C)CC(=O)N(C)[C@H]3C/C=C\CCN(C3=O)[C@@H](Cc3ccc(C(F)(F)F)cc3)C(=O)N(C)CC(=O)N[C@@H](CCc3cc(F)c(C(F)(F)F)c(F)c3)C(=O)N2C1 [PP1093]
NRAS/KRAS (ratio of KD value for NRAS to KD value for KRAS) [1, 3]: AA (a compound having 20 or more is denoted as AA)
HRAS/KRAS (ratio of KD value for HRAS to KD value for KRAS) [2, 4]: A (a compound having 10 or more and less than 20 is denoted as A)

CCOC[C@H]1C(=O)N[C@@H]([C@@H](C)CC)C(=O)N(C)CC(=O)N(C)[C@H]2C/C=C\CCN(C2=O)[C@@H](Cc2ccc(C)c(F)c2)C(=O)N(C)CC(=O)N[C@@H](CCc2ccc(C(F)(F)F)c(OC)c2)C(=O)N2C[C@@H](C)C[C@H]2C(=O)NC2(CC(C)(C)C2)C(=O)N(C)[C@@H](C2CCCC2)C(=O)N(C)[C@H](C(=O)N(C)CC)CC(=O)N1C [PP2698]
NRAS/KRAS (ratio of KD value with respect to GDP-bound NRAS wild-type protein to KD value with respect to KRAS) [1]: A (a compound having 10 or more and less than 20 is denoted as A)
HRAS/KRAS (ratio of KD value with respect to GDP-bound HRAS wild-type protein to KD value with respect to KRAS) [2]: A (a compound having 10 or more and less than 20 is denoted as A)

CCO[C@@H]1C[C@H]2C(=O)NC3(CC(C)(C)C3)C(=O)N(C)[C@@H](C3CCCC3)C(=O)N(C)[C@H](C(=O)N(C)C)CC(=O)N(C)[C@@H](CC(C)C)C(=O)N[C@@H]([C@@H](C)CC)C(=O)N(C)CC(=O)N(C)[C@H]3C/C=C\CCN(C3=O)[C@@H](Cc3ccc(C)cc3F)C(=O)N(C)CC(=O)N[C@@H](CCc3ccc(C(F)(F)F)c(OC)c3)C(=O)N2C1 [PP2688]
NRAS/KRAS (ratio of KD value with respect to GDP-bound NRAS wild-type protein to KD value with respect to KRAS) [1]: A (a compound having 10 or more and less than 20 is denoted as A)
HRAS/KRAS (ratio of KD value with respect to GDP-bound HRAS wild-type protein to KD value with respect to KRAS) [2]: B (a compound having 3 or more and less than 10 is denoted as B)

CCC(CC)[C@H]1C(=O)N(C)[C@H](C(=O)N(C)C)CC(=O)N(C)[C@@H](COC)C(=O)N[C@@H]([C@@H](C)CC)C(=O)N(C)CC(=O)N(C)[C@H]2C/C=C\CCN(C2=O)[C@@H](Cc2ccc(C)cc2)C(=O)N(C)CC(=O)N[C@@H](CCc2ccc(C(F)(F)F)c(OC)c2)C(=O)N2CCCCC[C@H]2C(=O)NC2(CC(C)(C)C2)C(=O)N1C [PP2970]
NRAS/KRAS (ratio of KD value with respect to GDP-bound NRAS wild-type protein to KD value with respect to KRAS) [1]: A (a compound having 10 or more and less than 20 is denoted as A)
HRAS/KRAS (ratio of KD value with respect to GDP-bound HRAS wild-type protein to KD value with respect to KRAS) [2]: A (a compound having 10 or more and less than 20 is denoted as A)

CCC(CC)[C@H]1C(=O)N(C)[C@H](C(=O)N(C)C)CC(=O)N(C)[C@@H](COC)C(=O)N[C@@H]([C@@H](C)CC)C(=O)N(C)CC(=O)N(C)[C@H]2C/C=C\CCN(C2=O)[C@@H](Cc2ccc(C)cc2)C(=O)N(C)CC(=O)N[C@@H](CCc2cc(F)c(C(F)(F)F)c(F)c2)C(=O)N2CCCCC[C@H]2C(=O)NC2(CC(C)(C)C2)C(=O)N1C [PP2960]
NRAS/KRAS (ratio of KD value with respect to GDP-bound NRAS wild-type protein to KD value with respect to KRAS) [1]: A (a compound having 10 or more and less than 20 is denoted as A)
HRAS/KRAS (ratio of KD value with respect to GDP-bound HRAS wild-type protein to KD value with respect to KRAS) [2]: A (a compound having 10 or more and less than 20 is denoted as A)

CCO[C@@H]1C[C@H]2C(=O)NC3(CCC3)C(=O)N(C)[C@@H](C3CCCC3)C(=O)N(C)[C@H](C(=O)N3CCOCC3)CC(=O)N(C)[C@@H](CC(C)C)C(=O)N[C@@H]([C@@H](C)CC)C(=O)N3CC[C@H]3C(=O)N(C)[C@H]3C[C@@H](C)CCN(C3=O)[C@@H](Cc3ccc(C(F)(F)F)cc3)C(=O)N(C)CC(=O)N[C@@H](CCc3cc(F)c(C(F)(F)F)c(F)c3)C(=O)N2C1 [PP1026]
NRAS/KRAS (ratio of KD value for NRAS to KD value for KRAS) [1, 3]: B (a compound having 3 or more and less than 10 is denoted as B)
HRAS/KRAS (ratio of KD value for HRAS to KD value for KRAS) [2, 4]: B (a compound having 3 or more and less than 10 is denoted as B)

CCC[C@H]1C(=O)N[C@@H](C2CCCC2)C(=O)N(C)CC(=O)N(C)[C@H]2C/C=C\CCN(C2=O)[C@@H](Cc2ccc(C)cc2)C(=O)N(C)CC(=O)N[C@@H](CCc2ccc(C(F)(F)F)c(OC)c2)C(=O)N2CC3(CC3)C[C@H]2C(=O)NC2(CC(C)(C)C2)C(=O)N(C)[C@@H](C2CCCC2)C(=O)N(C)[C@H](C(=O)N(C)C)CC(=O)N1C [PP2994]
NRAS/KRAS (ratio of KD value for NRAS to KD value for KRAS) [1, 3]: AA (a compound having 20 or more is denoted as AA)
HRAS/KRAS (ratio of KD value for HRAS to KD value for KRAS) [2, 4]: A (a compound having 10 or more and less than 20 is denoted as A)

CCC[C@H]1C(=O)N[C@@H](C2CCCCC2)C(=O)N(C)CC(=O)N(C)[C@H]2C/C=C\CCN(C2=O)[C@@H](Cc2ccc(C)cc2)C(=O)N(C)CC(=O)N[C@@H](CCc2ccc(C(F)(F)F)c(Cl)c2)C(=O)N2C[C@H](OCC)C[C@H]2C(=O)NC2(CC(C)(C)C2)C(=O)N(C)[C@@H](C2CCCC2)C(=O)N(C)[C@H](C(=O)N(C)C)CC(=O)N1C [PP2998]
NRAS/KRAS (ratio of KD value for NRAS to KD value for KRAS) [1, 3]: A (a compound having 10 or more and less than 20 is denoted as A)
HRAS/KRAS (ratio of KD value for HRAS to KD value for KRAS) [2, 4]: AA (a compound having 20 or more is denoted as AA)
